Source: US7790727B2, “Benzenesulfonanilide compounds suitable for treating disorders that respond to modulation of the serotonin 5-HT6 receptor” (Abbott GmbH & Co. KG, priority 2007, dated 2010)
Structures can show the parent of a compound that is named as a salt. Where two headings read alike, the source gives them in different places.

What was measured:
h-5-HT6 receptor = biological target: T1, h-5-HT6 receptor (Homo sapiens, UniProt P50406); assay: 5-HT6 receptor binding assay (displacement of [3H]-LSD)
T1 construct: expressed in transfected cells
T1 sequence (P50406 whole entry): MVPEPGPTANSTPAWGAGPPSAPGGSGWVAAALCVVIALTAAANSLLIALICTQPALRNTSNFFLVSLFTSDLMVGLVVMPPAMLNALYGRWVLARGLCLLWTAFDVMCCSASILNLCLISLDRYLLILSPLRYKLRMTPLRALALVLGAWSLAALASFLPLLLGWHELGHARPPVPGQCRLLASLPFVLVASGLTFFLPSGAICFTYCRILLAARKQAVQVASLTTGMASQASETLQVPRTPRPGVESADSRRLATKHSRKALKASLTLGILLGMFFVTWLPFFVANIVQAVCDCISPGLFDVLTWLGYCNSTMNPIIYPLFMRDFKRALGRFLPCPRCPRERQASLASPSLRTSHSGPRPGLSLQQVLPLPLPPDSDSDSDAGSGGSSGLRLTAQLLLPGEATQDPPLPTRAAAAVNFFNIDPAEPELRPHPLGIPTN
Method: Displacement of radioligands binding to the following cloned human receptors
(§1) 1. Preparation of Membranes by Ultrasonic Treatment and Differential Centrifugation
Cells from stable clonal cell lines expressing the corresponding receptor (5-HT6, α1-adrenergic, dopamine D2 or histamine H1 receptors) were washed with PBS (w/o Ca^++, Mg^++) and harvested in PBS with 0.02% EDTA. The cells were collected by centrifugation at 500 g for 10 min. at 4° C., washed with PBS and centrifuged (500 g, 10 min. 4° C.). The pellets were stored at −80° C. until use. F or membrane preparation, the thawed cell pellet was resuspended in ice-cold sucrose buffer (0.25 M sucrose, 10 mM Hepes (pH 7.4), 1 mM Phenylmethylsulfonyl fluoride (PMSF) in DMSO, 5 μg/ml Pepstatin-A, 3 mM EDTA, 0.025% Bacitracin) and homogenized with a Branson Sonifier W-250 (Settings: Timer 4; Output Control 3; Duty Cycle constant; 2 to 3 cycles). Cell disruption was checked with the aid of a microscope. Remaining unbroken cells were pelleted at 1.000 g for 10 min. at 4° C. The sucrose buffer supernatant was then centrifuged at 60.000 g for 1 h at 4° C. (Beckman Ultrazentrifuge XL 80). The pellet was resuspended in 30 ml ice-cold Tris buffer (20 mM TRIS (pH 7.4), 5 μg/ml Pepstatin A, 0.1 mM PMSF, 3 mM EDTA) by pipetting through a 10 ml serological pipet and centrifuged for 1 h at 4° C. at 60.000 g. A final resuspension was performed in a small volume of ice-cold Tris buffer (see above) by pressing through a serological pipet followed by ultrasonic treatment with a Branson Sonifier W-250 (Settings: Timer 1; Output Control 3; Duty Cycle constant; 1 cycle). Protein concentration was determined (BCA-Kit; Pierce) and aliquots stored at −80° C. or in liquid nitrogen for long-term storage.
(§2) 2. Receptor Binding Experiments
All receptor binding experiments were carried out in the corresponding assay buffer in a total volume of 200 μl in the presence of various concentrations of test compound (10^−5 M to 10^−9 M, tenfold serial dilution, duplicate determinations). The assays were terminated by filtration on polyethylenimine (PEI 0.1% or 0.3%) presoaked Packard Unifilter Plates (GF/C or GF/B) with a Tomtec Machill U 96 well-plate harvester. After the plates had been dried for 2 h at 55° C. in a drying chamber scin tillation cocktail (BetaPlate Scint; PerkinElmer) was added. Radioactivity was measured in a Microbeta Trilux two hours after the addition of the scintillation mixture. Data derived from liquid scintillation counting were analysed by iterative non-linear regression analysis with the use of the Statistical Analysis System (SAS): a program similar to “LIGAND” as described by Munson and Rodbard (Analytical Biochemistry 107, 220-239 (1980).
a) 5-HT6 Receptor Binding Assay
HEK293 cells stably expressing the h-5-HT6 receptor (NCBI Reference Sequence XM 001435) were cultured in RPMI1640 medium supplemented with 25 mM HEPES, 10% fetal calf serum and 1-2 mM glutamine. The membrane preparation was performed as described in section 1. […] Non-specific binding was defined with 1 μM methiothepin. The binding reaction was carried out for 3.5 h at room temperature. During the incubation, the plates were shaken on a plate shaker at 100 rpm and terminated by filtration on Packard Unifilter GF/C (0.1% PEI) plates, followed by 2 wash cycles with ice-cold 50 mM Tris-HCl, 5 mM CaCl2.
Data derived from liquid scintillation counting were analyzed by iterative non-linear regression analysis with the use of the Statistical Analysis System (SAS): a program similar to “LIGAND” as described by Munson and Rodbard (Anal. Biochem. 1980, 107, 220-239). Fitting was performed according to formulae described by Feldman (Anal. Biochem. 1972, 48, 317-338). IC50, nH and Ki values were expressed as geometrical mean.

dopamine D2 receptor = biological target: T2, dopamine D2 receptor (Homo sapiens, UniProt P14416); assay: Dopamine D2 receptor binding assay (displacement of [125I]-iodospiperone); settings: dopamine D2 receptor membranes, HEK293; read-out: KD of radioligand (saturation binding experiments)
T2 construct: expressed in transfected cells
T2 sequence (P14416 whole entry): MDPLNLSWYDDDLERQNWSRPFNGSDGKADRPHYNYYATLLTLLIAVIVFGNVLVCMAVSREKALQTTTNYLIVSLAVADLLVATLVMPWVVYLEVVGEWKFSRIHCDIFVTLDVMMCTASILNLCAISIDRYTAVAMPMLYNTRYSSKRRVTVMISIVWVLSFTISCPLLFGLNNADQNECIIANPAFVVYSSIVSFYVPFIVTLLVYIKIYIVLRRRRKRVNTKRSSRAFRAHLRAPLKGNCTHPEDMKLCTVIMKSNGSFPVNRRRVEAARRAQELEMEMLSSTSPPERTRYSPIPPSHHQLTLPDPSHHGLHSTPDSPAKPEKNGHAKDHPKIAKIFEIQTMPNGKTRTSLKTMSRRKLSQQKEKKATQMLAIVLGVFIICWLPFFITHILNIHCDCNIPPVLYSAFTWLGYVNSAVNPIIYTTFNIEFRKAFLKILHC
Method: as §1
The pellets were stored at −80° C. until use. […] (Beckman Ultrazentrifuge XL 80).
as §2
a) Dopamine D2 Receptor Binding Assay
Non-specific binding was defined with 1 μM haloperidol.

O=S(=O)(Nc1cccc(N2CCNCC2)c1)c1ccccc1OC(F)F [Example 30, 2-Difluoromethoxy-N-(3-piperazin-1-yl-phenyl)-benzenesulfonamide Trifluoroacetate]
Ki (h-5-HT6 receptor): < 10 nM

COc1ccc(S(=O)(=O)Nc2cccc(N3CCNCC3)c2)cc1OC(F)F [Example 31, 3-Difluoromethoxy-4-methoxy-N-(3-piperazin-1-yl-phenyl)-benzenesulfonamide Trifluoroacetate]
Ki (h-5-HT6 receptor; membranes of HEK293 cells expressing h-5-HT6 receptor, 1 nM [3H]-LSD, read-out: Ki(5HT6)): < 50 nM

iodospiperone [[^125I]-iodospiperone]
Kd (dopamine D2 receptor): 0.22 nM
